Test results taken from patent publication US6329421A, “Diaryl bicyclic heterocycles as inhibitors of cyclooxygenase-2” (Merck Frosst Canada & Co., priority 1997, dated 2001).
Blank lines part the entries; values can stand above or below the molecule they belong to.

How the values were obtained:
[1] = target: T1, cyclooxygenase-2 (Homo sapiens, UniProt P35354); experiment: Inhibition of cyclooxygenase activity: Cox-2 (PGE2 production in response to arachidonic acid, radioimmunoassay; human osteosarcoma 143 cells); assay type: cell-based; details: read-out: Cox-2% inhib.; for inhibition at 0.1 µM: Conc. 100 nM; for inhibition at 1 µM: Conc. 1000 nM
T1 construct: human osteosarcoma 143 cells (which specifically express cyclooxygenase-2); endogenous in cells; host or cells: human osteosarcoma 143 cells
T1 sequence (P35354 18-604): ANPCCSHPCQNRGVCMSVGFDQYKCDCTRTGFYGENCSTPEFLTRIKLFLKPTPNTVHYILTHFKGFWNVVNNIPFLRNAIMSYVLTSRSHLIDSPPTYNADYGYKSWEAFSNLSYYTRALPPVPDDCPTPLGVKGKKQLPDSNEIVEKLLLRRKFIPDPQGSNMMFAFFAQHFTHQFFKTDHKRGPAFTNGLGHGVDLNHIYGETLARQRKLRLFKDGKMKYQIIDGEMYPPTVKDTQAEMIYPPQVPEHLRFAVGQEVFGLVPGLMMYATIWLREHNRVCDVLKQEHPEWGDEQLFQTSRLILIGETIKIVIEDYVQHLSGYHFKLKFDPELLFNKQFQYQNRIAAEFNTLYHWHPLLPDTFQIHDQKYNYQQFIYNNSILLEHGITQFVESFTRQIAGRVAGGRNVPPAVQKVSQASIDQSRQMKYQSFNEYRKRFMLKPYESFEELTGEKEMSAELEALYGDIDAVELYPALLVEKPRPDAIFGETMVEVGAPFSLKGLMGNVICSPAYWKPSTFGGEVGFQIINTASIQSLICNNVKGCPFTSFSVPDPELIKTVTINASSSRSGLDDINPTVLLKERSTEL
Description: (§1) Compounds were tested as inhibitors of cyclooxygenase activity in whole cell and microsomal cyclooxygenase assays. Both of these assays measured prostaglandin E2 synthesis in response to arachidonic acid, using a radioimmunoassay. Cells used for whole cell assays, and from which microsomes were prepared for microsomal assays, were human osteosarcoma 143 cells (which specifically express cyclooxygenase-2) and human U-937 cells (which specifically express cyclooxygenase-1). In these assays, 100% activity is defined as the difference between prostaglandin E2 synthesis in the absence and presence of arachidonate addition. Compounds of the present invention are inhibitors of cyclooxygenase-2 and are thereby useful in the treatment of cyclooxygenase-2 mediated diseases as enumerated above. The activities of the compounds against cyclooxygenase may be seen in the representative results shown below. In the assay, inhibition is determined by measuring the amount of prostaglandin E2 (PGE2) synthesized in the presence of arachidonic acid, cyclooxygenase-1 or cyclooxygenase-2 and a putative inhibitor. The IC50 values represent the concentration of putative inhibitor required to return PGE2 synthesis to 50% of that obtained as compared to the uninhibited control. For purposes of this specification, a compound is a selective inhibitor of COX-2 over COX-1 if the ratio of IC50 's for COX-1: COX-2 is 100 or greater, preferably 500 or greater. The results for inhibition of PGE2 production may be seen in Table III.

[2] = target: T2, cyclooxygenase-1 (Homo sapiens, UniProt P23219); experiment: Inhibition of cyclooxygenase activity: Cox-1 (PGE2 production in response to arachidonic acid, radioimmunoassay; human U-937 cells); assay type: cell-based; details: read-out: Cox-1% inhib.; for inhibition at 0.1 µM: Conc. 100 nM; for inhibition at 1 µM: Conc. 1000 nM
T2 construct: human U-937 cells (which specifically express cyclooxygenase-1); endogenous in cells; host or cells: human U-937 cells
T2 sequence (P23219 24-599): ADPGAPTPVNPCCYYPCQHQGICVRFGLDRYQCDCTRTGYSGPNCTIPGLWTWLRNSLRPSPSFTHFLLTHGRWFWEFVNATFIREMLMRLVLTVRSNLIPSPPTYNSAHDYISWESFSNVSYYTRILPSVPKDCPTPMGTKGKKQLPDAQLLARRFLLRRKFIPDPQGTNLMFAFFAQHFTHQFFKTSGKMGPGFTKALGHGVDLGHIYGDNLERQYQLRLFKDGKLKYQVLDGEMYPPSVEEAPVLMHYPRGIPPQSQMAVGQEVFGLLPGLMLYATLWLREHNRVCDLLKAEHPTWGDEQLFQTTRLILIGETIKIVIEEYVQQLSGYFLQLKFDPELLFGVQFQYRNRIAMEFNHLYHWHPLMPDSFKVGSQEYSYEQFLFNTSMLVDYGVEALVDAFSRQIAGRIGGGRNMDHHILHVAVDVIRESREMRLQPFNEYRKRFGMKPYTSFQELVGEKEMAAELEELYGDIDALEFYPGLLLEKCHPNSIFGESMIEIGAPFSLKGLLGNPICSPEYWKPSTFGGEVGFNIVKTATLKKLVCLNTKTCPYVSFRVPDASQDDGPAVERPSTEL
Description: as §1

Structure (SMILES): CS(=O)(=O)c1ccc(C2=C(c3ccccc3)C(=O)c3ccccc32)cc1 [Example 3, 3-(4-(Methylsulfonyl)phenyl)-2-phenylinden-1-one]
- inhibition at 0.1 µM [1]: 80%
- inhibition at 0.1 µM [2]: 5%

Structure (SMILES): CS(=O)(=O)c1ccc(-c2c(-c3ccccc3)oc3ccccc23)cc1 [Example 1, 3-(4-(Methylsulfonyl)phenyl)-2-phenylbenzo[b]furan]
- inhibition at 0.1 µM [1]: 94%
- inhibition at 0.1 µM [2]: 0%

Structure (SMILES): CS(=O)(=O)c1ccc(-c2[nH]c3ccccc3c2-c2ccc(F)cc2)cc1 [Example 5, 3-(4-Fluorophenyl)-2-(4-(methylsulfonyl)phenyl)indole]
- inhibition at 0.1 µM [1]: 86%
- inhibition at 0.1 µM [2]: 21%

Structure (SMILES): CS(=O)(=O)c1ccc(-c2c(-c3ccccc3)sc3ccccc23)cc1 [Example 2, 3-(4-(Methanesulfonyl)phenyl)-2-phenylbenzo[b]thiophene]
- inhibition at 1 µM [1]: 17%
- inhibition at 1 µM [2]: 3%

Structure (SMILES): CS(=O)(=O)c1ccc(-c2c(-c3ccc(F)cc3)sc3c2COC3=O)cc1 [Example 6, 2-(4-Fluorophenyl)-3-(4-(methylsulfonyl)phenyl)-4H-thieno[2,3-c]furan-6-one]
- inhibition at 0.015 µM ([1]; Conc. 15 nM): 50%
- inhibition at 0.015 µM ([2]; Conc. 15 nM): 0%

Structure (SMILES): CS(=O)(=O)c1ccc(-c2c(-c3ccc(F)cc3)[nH]c3ccccc23)cc1 [Example 4, 2-(4-Fluorophenyl)-3-(4-(methylsulfonyl)phenyl)indole]
- inhibition at 0.01 µM ([1]; Conc. 10 nM): 58%
- inhibition at 1 µM [2]: 0%

The remaining lines, values ahead:

- inhibition at 0.1 µM [1]: 65%
- inhibition at 1 µM [1]: 91%
- inhibition at 1 µM [2]: 28%
Structure (SMILES): CS(=O)(=O)c1ccc(-c2c(-c3ccccc3)sc3c2CC(=O)OC3)cc1 [Example 10, 3-(4-(Methylsulfonyl)phenyl)-2-phenyl-4,7-dihydro-thieno[2,3-c]pyran-5-one]

- inhibition at 0.1 µM [1]: 98%
- inhibition at 1 µM [1]: 99%
- inhibition at 1 µM [2]: 21%
Structure (SMILES): NS(=O)(=O)c1ccc(-c2c(-c3ccc(F)c(F)c3)sc3c2COC3=O)cc1 [Example 9, 2-(3,4-Difluorophenyl)-3-(4-(aminosulfonyl)phenyl)4H-thieno-[2,3-c]furan-6-one]

- inhibition at 0.1 µM [1]: 42%
- inhibition at 10 µM ([2]; Conc. 10000 nM): 26%
Structure (SMILES): NS(=O)(=O)c1ccc(-c2c(-c3ccc(F)cc3)sc3c2COC3=O)cc1 [Example 8, 2-(4-Fluorophenyl)-3-(4-(aminosulfonyl)phenyl)-4H-thieno[2,3-c]furan-6-one]

- inhibition at 0.1 µM [1]: 64%
- inhibition at 1 µM [1]: 100%
- inhibition at 1 µM [2]: 4%
Structure (SMILES): CS(=O)(=O)c1ccc(-c2c(-c3ccc(F)c(F)c3)sc3c2COC3=O)cc1 [Example 7, 2-(3,4-Difluorophenyl)-3-(4-(methylsulfonyl)phenyl)-4H-thieno[2,3-c]-furan-6-one]
